In the assay the test system is salmons. In words: Fish feeding experiment, fillet colour by SalmoFan color measurement scale. As to conditions: salmon fillets, supplement in basic fish feed (50 mg astaxanthin/kg or 15% (w/w) fermented composition), fed for 8 weeks. The class given is in vivo. The method, then:
The colour intensity of a salmonoid fillets according to the present invention may be determined by the SalmoFan™ color measurement scale. The SalmoFan™ color measurement scale has been developed by DSM and may be determined physically, using visual inspection applying a colour scale, or by digitally determination, using a colour sensor to determine the colour intensity. Fish feeding experiment using the following feed are performed: • (1) A basic fish feed comprising 50 mg chemically produced astaxanthin/kg basic fish feed; • (2) A basic fish feed comprising 15% (w/w) of a fermented composition comprising 99% fermented rapeseed meal and 1% fermented seaweed; and • (3) A basic fish feed comprising 15% (w/w) of a fermented composition as provided in Example 1, comprising 93% fermented soymeal, 6% fermented rapeseed meal and 1% fermented seaweed. 3 ponds with each 10 salmons of about 3 kg per salmon was fed with the above-mentioned basic fish feed, including supplement (1), (2) or (3), in the stated concentrations, for a period of 8 weeks. After the […] weeks the salmons were harvested, gutted and filleted and the colour of the fillets was determined by the SalmoFan™ color measurement scale.

Consider `CC1=C(/C=C/C(C)=C/C=C/C(C)=C/C=C/C=C(C)/C=C/C=C(C)/C=C/C2=C(C)C(=O)[C@@H](O)CC2(C)C)C(C)(C)C[C@H](O)C1=O` [supplement 1, astaxanthin], for which the Colour intensity was 23-23.

The record behind these values is patent US20240306682A1, “Process for providing a combination of fermented seaweed and/or algae and plant material selected from the family Fabaceae” (FERMENTATIONEXPERTS A/S, priority 2020, published 2024).
